Data taken from patent US10144732B2 (BIOGEN MA INC., priority 2014, dated 2018).
Structures can show the parent of a compound that is named as a salt.

biological target: T1, Human ATX protein (Homo sapiens, UniProt Q13822); test: ATX biochemical assay (FRET, FS-3 substrate); conditions: FRET assay, FS-3 2 μM, ATX 1.0 μg/mL, 30 minutes preincubation, 2 hours reaction at room temperature; read-out: IC50
T1 construct: made in house
Outline: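 In-house human ATX (1.0 μg/mL final) was preincubated with compound for 30 min at room temperature in Tris buffer pH 7.4 with 1 mg/mL fatty acid free-BSA. FS-3 substrate (2 μM final) was then hydrolysed for 2 hours at room temperature, protected from light, and read as fluorescence at ex 485/em 538 nm.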

Structure (SMILES)	IC50 [nM]
C[C@]1(C(=O)O)CC[C@@H](CC(=O)N2CCc3c(C(F)(F)F)nn(Cc4ccc(F)cc4)c3C2)CC1 [Example 7-25, cis-4-(2-(1-(4-fluorobenzyl)-3-(trifluoromethyl)-4,5-dihydro-1H-pyrazolo[3,4-c]pyridin-6(7H)-yl)-2-oxoethyl)-1-methylcyclohexanecarboxylic acid]	≤ 100
CC(C)(C)OC(=O)N1CCC(CC(=O)N2CCc3c(C(F)(F)F)nn(Cc4ccc(Cl)cc4F)c3C2)CC1 [Example 8-2, tert-Butyl 4-(2-(1-(4-chloro-2-fluorobenzyl)-3-(trifluoromethyl)-4,5-dihydro-1H-pyrazolo[3,4-c]pyridin-6(7H)-yl)-2-oxoethyl)piperidine-1-carboxylate]	≤ 100
CC(C)(C)OC(=O)N1CC(CC(=O)N2CCc3c(C(F)(F)F)nn(Cc4ccc(Cl)cc4F)c3C2)C1 [Example 8-3, tert-Butyl 3-(2-(1-(4-chloro-2-fluorobenzyl)-3-(trifluoromethyl)-4,5-dihydro-1H-pyrazolo[3,4-c]pyridin-6(7H)-yl)-2-oxoethyl)azetidine-1-carboxylate]	≤ 100
CC(C)(C)OC(=O)N1CCCC(CC(=O)N2CCc3c(C(F)(F)F)nn(Cc4ccc(F)cc4)c3C2)C1 (centres unmarked) [Example 8-4, tert-Butyl 3-(2-(1-(4-fluorobenzyl)-3-(trifluoromethyl)-4,5-dihydro-1H-pyrazolo[3,4-c]pyridin-6(7H)-yl)-2-oxoethyl)piperidine-1-carboxylate]	≤ 100
CC1CC(CC(=O)N2CCc3c(C(F)(F)F)nn(Cc4ccc(Cl)cc4F)c3C2)CCN1C(=O)OC(C)(C)C (centres unmarked) [Example 8-5, tert-Butyl 4-(2-(1-(4-chloro-2-fluorobenzyl)-3-(trifluoromethyl)-4,5-dihydro-1H-pyrazolo[3,4-c]pyridin-6(7H)-yl)-2-oxoethyl)-2-methylpiperidine-1-carboxylate]	≤ 100
CC(C)(C)OC(=O)N1CCC(CC(=O)N2CCc3c(C(F)(F)F)nn(Cc4ccc(Cl)cc4F)c3C2)CC1(C)C (centres unmarked) [Example 8-6, tert-Butyl 4-(2-(1-(4-chloro-2-fluorobenzyl)-3-(trifluoromethyl)-4,5-dihydro-1H-pyrazolo[3,4-c]pyridin-6(7H)-yl)-2-oxoethyl)-2,2-dimethylpiperidine-1-carboxylate]	≤ 100
CC(C)(C)OC(=O)N1CCC(CC(=O)N2CCc3c(C(F)(F)F)nn(Cc4ccc(Cl)cc4F)c3C2)CC1C(F)(F)F (centres unmarked) [Example 8-7, tert-Butyl 4-(2-(1-(4-chloro-2-fluorobenzyl)-3-(trifluoromethyl)-4,5-dihydro-1H-pyrazolo[3,4-c]pyridin-6(7H)-yl)-2-oxoethyl)-2-(trifluoromethyl)piperidine-1-carboxylate]	≤ 100
CCC1CC(CC(=O)N2CCc3c(C(F)(F)F)nn(Cc4ccc(F)cc4)c3C2)CCN1C(=O)OC(C)(C)C (centres unmarked) [Example 8-8, tert-Butyl 2-ethyl-4-(2-(1-(4-fluorobenzyl)-3-(trifluoromethyl)-4,5-dihydro-1H-pyrazolo[3,4-c]pyridin-6(7H)-yl)-2-oxoethyl)piperidine-1-carboxylate]	≤ 100
CCCC1CC(CC(=O)N2CCc3c(C(F)(F)F)nn(Cc4ccc(F)cc4)c3C2)CCN1C(=O)OC(C)(C)C (centres unmarked) [Example 8-9, tert-Butyl 4-(2-(1-(4-fluorobenzyl)-3-(trifluoromethyl)-4,5-dihydro-1H-pyrazolo[3,4-c]pyridin-6(7H)-yl)-2-oxoethyl)-2-propylpiperidine-1-carboxylate]	≤ 100
CC(C)(C)OC(=O)NC12CCC(C(=O)N3CCc4c(C(F)(F)F)nn(Cc5ccc(F)cc5)c4C3)(CC1)CC2 [Example 8-10, tert-Butyl 4-(1-(4-fluorobenzyl)-3-(trifluoromethyl)-4,5,6,7-tetrahydro-1H-pyrazolo[3,4-c]pyridine-6-carbonyl)bicyclo[2.2.2]octan-1-ylcarbamate]	≤ 100

Further lines, results first:

IC50 [nM]	Structure (SMILES)
≤ 100	O=C(CC1CNC1)N1CCc2c(C(F)(F)F)nn(Cc3ccc(Cl)cc3F)c2C1 [Example 9-3, 2-(Azetidin-3-yl)-1-(1-(4-chloro-2-fluorobenzyl)-3-(trifluoromethyl)-4,5-dihydro-1H-pyrazolo[3,4-c]pyridin-6(7H)-yl)ethanone TFA salt]
≤ 100	O=C(CC1CCCNC1)N1CCc2c(C(F)(F)F)nn(Cc3ccc(F)cc3)c2C1 (centres unmarked) [Example 9-4, 1-(1-(4-Fluorobenzyl)-3-(trifluoromethyl)-4,5-dihydro-1H-pyrazolo[3,4-c]pyridin-6(7H)-yl)-2-(piperidin-3-yl)ethanone HCl salt]
≤ 100	CC1CC(CC(=O)N2CCc3c(C(F)(F)F)nn(Cc4ccc(Cl)cc4F)c3C2)CCN1 (centres unmarked) [Example 9-5, 1-(1-(4-Chloro-2-fluorobenzyl)-3-(trifluoromethyl)-4,5-dihydro-1H-pyrazolo[3,4-c]pyridin-6(7H)-yl)-2-(2-methylpiperidin-4-yl)ethanone TFA salt]
≤ 100	CC1(C)CC(CC(=O)N2CCc3c(C(F)(F)F)nn(Cc4ccc(Cl)cc4F)c3C2)CCN1 (centres unmarked) [Example 9-6, 1-(1-(4-Chloro-2-fluorobenzyl)-3-(trifluoromethyl)-4,5-dihydro-1H-pyrazolo[3,4-c]pyridin-6(7H)-yl)-2-(2,2-dimethylpiperidin-4-yl)ethanone TFA salt]
≤ 100	O=C(CC1CCNC(C(F)(F)F)C1)N1CCc2c(C(F)(F)F)nn(Cc3ccc(Cl)cc3F)c2C1 (centres unmarked) [Example 9-7, 1-(1-(4-Chloro-2-fluorobenzyl)-3-(trifluoromethyl)-4,5-dihydro-1H-pyrazolo[3,4-c]pyridin-6(7H)-yl)-2-(2-(trifluoromethyl)piperidin-4-yl)ethanone TFA salt]
≤ 100	O=C(O)[C@@H]1CC(CC(=O)N2CCc3c(C(F)(F)F)nn(Cc4ccc(Cl)cc4F)c3C2)CN1 (some centres unmarked) [Example 9-8, (2s)-4-(2-(1-(4-Chloro-2-fluorobenzyl)-3-(trifluoromethyl)-4,5-dihydro-1H-pyrazolo[3,4-c]pyridin-6(7H)-yl)-2-oxoethyl)pyrrolidine-2-carboxylic acid TFA salt]
100 to 250	NC12CCC(C(=O)N3CCc4c(C(F)(F)F)nn(Cc5ccc(F)cc5)c4C3)(CC1)CC2 [Example 9-9, (4-Aminobicyclo[2.2.2]octan-1-yl)(1-(4-fluorobenzyl)-3-(trifluoromethyl)-4,5-dihydro-1H-pyrazolo[3,4-c]pyridin-6(7H)-yl)methanone TFA salt]
100 to 250	NC12CCC(CC(=O)N3CCc4c(C(F)(F)F)nn(Cc5ccc(F)cc5)c4C3)(CC1)CC2 [Example 9-10, 2-(4-Aminobicyclo[2.2.2]octan-1-yl)-1-(1-(4-fluorobenzyl)-3-(trifluoromethyl)-4,5-dihydro-1H-pyrazolo[3,4-c]pyridin-6(7H)-yl)ethanone TFA salt]

same assay, conditions: IC50, FRET assay, FS-3 2 μM, ATX 1.0 μg/mL, 30 minutes preincubation, 2 hours reaction at room temperature

Structure (SMILES)	IC50 [nM]
CC(C)(C)OC(=O)N1C2CCC1CC(CC(=O)N1CCc3c(C(F)(F)F)nn(Cc4ccc(Cl)cc4F)c3C1)C2 (centres unmarked) [Example 8-1, tert-Butyl 3-(2-(1-(4-chloro-2-fluorobenzyl)-3-(trifluoromethyl)-4,5-dihydro-1H-pyrazolo[3,4-c]pyridin-6(7H)-yl)-2-oxoethyl)-8-azabicyclo[3.2.1]octane-8-carboxylate]	≤ 100
O=C(CC1CC2CCC(C1)N2)N1CCc2c(C(F)(F)F)nn(Cc3ccc(Cl)cc3F)c2C1 (centres unmarked) [Example 9-1, 2-(8-Aza-bicyclo[3.2.1]octan-3-yl)-1-(1-(4-chloro-2-fluorobenzyl)-3-(trifluoromethyl)-4,5-dihydro-1H-pyrazolo[3,4-c]pyridin-6(7H)-yl)ethanone TFA salt]	≤ 100
